Consider three molecules from US12643867B2, “Compositions and uses thereof” (University of Virginia Patent Foundation, priority 2017, dated 2026).

The target of assay [1] is T1, KS6A1 (Ribosomal protein S6 kinase alpha 1) (Homo sapiens, UniProt Q15418).
T1 construct: measured against >50 native kinases quantified in HEK293T soluble proteomes; endogenous in cells; host or cells: HEK293T soluble proteome
Briefly: SILAC LC-MS ATP acyl phosphate probe competition, native kinases in HEK293T. Format: binding. The note with it: site ACT; ATP 1 mM; Ketanserin, Ritanserin 100 μM; RF001 1 mM. As to the method: (§1) Proteomes were diluted to 2 mg/ml in kinase buffer. The light and heavy proteomes (0.5 mg, 250 μL total reaction volume) were pre-treated with vehicle or compound, respectively (5 μL, DMSO (light) or 50× stock in DMSO (heavy)), mixed gently, and incubated at 25° C. for 30 min. […] After incubation, matched light and heavy proteomes were transferred and mixed in a 1:1 ratio in a two-dram vial containing 4:1:3 MeOH/CHCl3/H2O (2 mL MeOH, 500 AL CHCl3, 1.5 mL H2O) for extraction of proteins to remove excess probe, quickly vortexed, and centrifuged at 1,400×g for 3 min to pellet protein. Organic and aqueous layers were removed using a Pasteur pipette, and the protein pellet was transferred to a screw-top tube in 600 μL MeOH. A second extraction was performed by adding CHCl3 (150 μL) and H2O (600 μL) to each sample, vortexed, and centrifuged at 1,400×g for 3 min to pellet protein. Organic and aqueous layers were removed by pipetting. MeOH added to pellet (600 μL) and pellets were re-suspended by sonication (3×1 sec pulse, 20% amplitude) for a final extraction. Samples were then centrifuged at 17,000×g for 5 min to pellet protein and MeOH was removed by pipetting. The pellets were re-suspended in 10 M urea/25 mM ammonium bicarbonate ([…]), brought to a final volume of 1 mL with 25 mM ammonium bicarbonate, reduced with 10 mM DTT for 15 min at 65° C. allowed to cool, and then alkylated with 40 mM iodoacetamide for 30 min at 25° C. in the dark. To desalt the samples, each was transferred to a two-dram glass vial, and to the vial 4:1:2 MeOH/CHCl3/H2O (2 mL MeOH, 500 AL CHCl3, 1 mL H2O) was added. The vials were vortexed quickly, spun at 1.400×g for 3 min to pellet protein, and aqueous and organic layers were removed using a Pasteur pipette. The resulting protein pellet was transferred to a screw-top tube in 600 μL MeOH, and then CHCl3 (150 μL) and HO (600 μL) were added to extract protein a second time. The samples were vortexed quickly, centrifuged at 1,400×g to pellet protein, and the aqueous and organic layers were removed by pipetting. Resulting protein pellet was suspended in MeOH (600 μL) via sonication (3×1 sec pulse, 20% amplitude), centrifuged at 17,000×g for 5 min to pellet protein, and MeOH removed by pipetting. Protein pellets were then re-suspended in 25 mM ammonium bicarbonate (500 μL) and digested with 7.5 μg Trypsin/Lys-C(Promega, 15 μL, 0.5 μg/μL) for 3 h at 37° C. Avidin-agarose beads (Thermo Scientific Pierce, 100 AL aliquot per sample) were washed three times by adding 10 mL DPBS, centrifuged at 1,400×g for 1 min, and decanting. This wash step was repeated for a total of 3 times. Digested protein samples were mixed with washed avidin beads (100 μL) and brought to a volume of 5.5 mL with DPBS in a 15 mL conical and rotated for 1 h to enrich samples for the covalent desthiobiotin modification. The beads were washed with 25 mM ammonium bicarbonate (3× with 10 mL, centrifuge at 1,400×g for 3 min, decant) and then H2O (3× with 10 mL, centrifuge at 1,400×g for 3 min, decant). Washed beads were then transferred to a low-bind microfuge tube, centrifuged at 1,400×g for 3 min, allowed to rest for 1 min to settle beads, and then excess H2O was removed carefully using a gel-loading pipette tip. To elute peptides, 100 μL of elution buffer (50% acetonitrile, ACN; 0.1% formic acid) was added to each sample and incubated for 3 min. Beads were spun down at 1.400×g for 3 min, allowed to rest for 1 min to settle beads, and then 75 μL of peptide-containing supernatant was removed carefully using a gel-loading pipette tip and transferred to a new low bind centrifuge tube. This step was repeated two more times with 75 μL of elution buffer and all eluent were collected into the same centrifuge tube (˜225 μL total). Peptides were dried on a speed vacuum, resulting peptide samples acidified in 5% (v/v) formic acid, and stored at −80° C. until analysis.
(§2) The peptide samples were analyzed by liquid chromatography-mass spectrometry. […]

Assay [2] deals with T2, LATS1 (Serine/threonine-protein kinase LATS1) (Homo sapiens, UniProt O95835).
T2 construct: Native kinases; endogenous in cells; host or cells: HEK293T soluble proteome
T2 sequence (O95835 1-1130): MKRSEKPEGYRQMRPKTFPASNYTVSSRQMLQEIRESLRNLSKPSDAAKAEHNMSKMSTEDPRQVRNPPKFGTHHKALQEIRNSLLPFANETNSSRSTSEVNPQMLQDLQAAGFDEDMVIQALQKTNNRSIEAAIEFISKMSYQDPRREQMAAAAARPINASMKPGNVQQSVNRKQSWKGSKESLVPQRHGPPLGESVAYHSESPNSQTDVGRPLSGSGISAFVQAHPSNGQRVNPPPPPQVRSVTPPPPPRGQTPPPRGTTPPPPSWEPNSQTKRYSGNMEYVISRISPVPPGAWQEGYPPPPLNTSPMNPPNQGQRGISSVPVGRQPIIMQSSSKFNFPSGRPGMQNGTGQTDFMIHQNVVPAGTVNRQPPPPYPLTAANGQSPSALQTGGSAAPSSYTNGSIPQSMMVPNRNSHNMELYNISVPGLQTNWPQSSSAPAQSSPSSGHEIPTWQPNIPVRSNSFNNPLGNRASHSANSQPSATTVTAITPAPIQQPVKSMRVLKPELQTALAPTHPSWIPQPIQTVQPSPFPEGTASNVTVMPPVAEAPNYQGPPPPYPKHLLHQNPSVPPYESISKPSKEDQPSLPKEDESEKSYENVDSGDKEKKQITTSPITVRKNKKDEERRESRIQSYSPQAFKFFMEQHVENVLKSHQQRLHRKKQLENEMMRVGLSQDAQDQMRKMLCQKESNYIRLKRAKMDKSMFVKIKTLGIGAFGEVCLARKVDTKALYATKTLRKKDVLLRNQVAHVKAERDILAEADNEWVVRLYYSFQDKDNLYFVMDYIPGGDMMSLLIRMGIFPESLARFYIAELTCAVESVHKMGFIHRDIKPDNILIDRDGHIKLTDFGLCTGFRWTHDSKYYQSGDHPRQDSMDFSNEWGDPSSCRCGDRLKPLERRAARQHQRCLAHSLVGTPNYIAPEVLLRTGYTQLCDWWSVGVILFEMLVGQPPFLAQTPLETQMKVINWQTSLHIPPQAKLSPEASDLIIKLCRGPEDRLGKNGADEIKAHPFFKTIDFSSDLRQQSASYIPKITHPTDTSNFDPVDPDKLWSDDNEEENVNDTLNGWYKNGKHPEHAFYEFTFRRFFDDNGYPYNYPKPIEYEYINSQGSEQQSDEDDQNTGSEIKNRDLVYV
The description is as above. The format is binding. Conditions: site Lys1; ATP 1 mM; Ketanserin, Ritanserin 100 μM; RF001 1 mM. As to the method: as §1, §2

Structures are written as SMILES.

T1 sequence (Q15418 whole entry): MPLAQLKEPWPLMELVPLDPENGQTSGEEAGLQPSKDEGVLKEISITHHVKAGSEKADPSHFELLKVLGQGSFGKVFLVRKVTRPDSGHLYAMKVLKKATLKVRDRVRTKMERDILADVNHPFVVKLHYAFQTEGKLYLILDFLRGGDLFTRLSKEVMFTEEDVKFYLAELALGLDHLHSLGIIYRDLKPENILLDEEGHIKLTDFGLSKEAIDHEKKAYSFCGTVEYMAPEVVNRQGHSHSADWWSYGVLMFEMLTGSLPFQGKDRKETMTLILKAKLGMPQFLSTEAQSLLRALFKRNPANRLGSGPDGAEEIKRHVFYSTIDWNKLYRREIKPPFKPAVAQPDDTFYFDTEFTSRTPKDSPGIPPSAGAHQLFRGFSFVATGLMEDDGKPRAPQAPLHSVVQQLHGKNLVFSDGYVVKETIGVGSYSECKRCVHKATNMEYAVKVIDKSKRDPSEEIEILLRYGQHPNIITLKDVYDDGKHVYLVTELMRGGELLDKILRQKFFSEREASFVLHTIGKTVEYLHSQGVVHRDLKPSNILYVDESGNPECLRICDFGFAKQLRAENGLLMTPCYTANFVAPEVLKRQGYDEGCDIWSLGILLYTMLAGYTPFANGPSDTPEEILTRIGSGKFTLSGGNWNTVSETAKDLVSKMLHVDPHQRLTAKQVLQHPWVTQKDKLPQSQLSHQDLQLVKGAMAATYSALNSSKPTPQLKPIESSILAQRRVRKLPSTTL

With `O=C(c1ccc(F)cc1)C1CCN(CCn2c(=O)[nH]c3ccccc3c2=O)CC1` [Ketanserin], in assay [1], the “SILAC ratio, KS6A1 probe-modified peptide” value was found to be 1.4. In addition, in assay [2], the “SILAC ratio, LATS1 probe-modified peptide” value is given as 1.2.
`Fc1ccc(C(=C2CCNCC2)c2ccc(F)cc2)cc1` [RF001, 4-(Bis(4-fluorophenyl)methylene) piperidine]: the “SILAC ratio, KS6A1 probe-modified peptide” value in assay [1] was 1.3. In addition, the “SILAC ratio, LATS1 probe-modified peptide” value in assay [2] was found to be 1.4.
The matching figures for `Cc1nc2sccn2c(=O)c1CCN1CCC(=C(c2ccc(F)cc2)c2ccc(F)cc2)CC1` [Ritanserin]: 2.1 and 1.8.
